Experiments:
COX-2 [1] = test: Inhibition of COX-2 enzyme protein expression in stimulated Jurkat cells (western blot); assay type: cell-based, Human; conditions: in the absence and presence of arachidonic acid, dose-range tested
From the text: Chemicals: Anti-COX-2 antibodies may be purchased from Upstate Biotechnology (Lake Placid, N.Y.). Parthenolide and andrographolide may be obtained from Sigma (St. Louis, Mo.). Arachidonic acid (AA), PMA and all other chemical may also be purchased from Sigma and are of the highest purity commercially available.
Human T cell lines: The Jurkat cell line is useful as a model for human T cells and may be obtained from the American Type Culture Collection (Bethesda, Md.). COX-2 is inducible in the Jurkat cell by PMA.
Cell plating: The Jurkat cells are propagated in suspension according to the instructions of the supplier. For experimentation, cells are seeded from a log-phase culture at a density of 1×10^5 cells per mL in 100 mm plates, 20 mL per plate, 3 plates per treatment. Serum concentration in the test medium is maintained at 0.5%.
Complete transfers are accomplished in 25-30 minutes at 500 mA. Membranes used for blotting are blocked by incubating in TBS (Tris buffered saline, 50 mM Tris, 150 mM NaCl, pH 7.5) containing 5% nonfat dry milk for 30 minutes at room temperature. COX-2 protein is visualized by incubation of the blots with the anti-COX-2 antibody in TBST (0.5% Tween 20 in TBS) for two hours and then a second incubation at room temperature with alkaline phosphatase-conjugated secondary antibody diluted 1:1000 in TBST for two hours. The enzymatic reaction is developed for 15 minutes. The molecular weight of COX-2 is estimated by adding a molecular weight standard to reference lanes and staining the membrane filters with amido black 10B.
Blots are translated into TIFF-formatted files with a Microtech 600GS scanner and quantified using Scan Analysis (BIOSOFT, Cambridge, UK). Summary scans are then printed and peak heights are measured directly from the figure. One density unit (Du) is defined as one mm of the resulting peak height.
Appropriate controls receive solvent only. […] Twenty-four hours after treatment, the cells are harvested, lysed and western blotting is done for the determination of COX-2 protein expression.

COX-2 [2] = biological target: T1, COX-2 (Mus musculus, UniProt Q05769); test: cell-based
T1 sequence (Q05769 18-604): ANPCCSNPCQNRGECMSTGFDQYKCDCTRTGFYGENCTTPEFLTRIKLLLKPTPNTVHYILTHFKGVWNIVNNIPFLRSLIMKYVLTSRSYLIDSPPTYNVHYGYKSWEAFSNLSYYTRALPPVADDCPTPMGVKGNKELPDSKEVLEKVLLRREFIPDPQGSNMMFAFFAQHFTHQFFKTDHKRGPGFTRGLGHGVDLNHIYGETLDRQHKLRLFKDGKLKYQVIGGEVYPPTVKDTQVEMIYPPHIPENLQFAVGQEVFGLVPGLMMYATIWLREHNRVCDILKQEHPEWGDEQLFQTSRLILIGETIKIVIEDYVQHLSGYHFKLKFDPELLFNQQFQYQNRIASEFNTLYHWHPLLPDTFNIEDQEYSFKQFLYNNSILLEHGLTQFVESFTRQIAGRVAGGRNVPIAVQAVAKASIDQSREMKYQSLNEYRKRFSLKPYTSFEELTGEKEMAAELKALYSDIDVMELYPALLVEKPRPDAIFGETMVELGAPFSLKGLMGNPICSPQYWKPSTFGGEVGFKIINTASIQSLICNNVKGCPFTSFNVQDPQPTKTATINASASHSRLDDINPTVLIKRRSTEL
Method: Inhibition of COX-2 Mediated Production of PGE2 in RAW 264.7 Cells
General Procedure—RAW 264.7 cells, obtained from ATCC, were grown in DMEM medium and maintained in log phase growth.
On day one of the experiment, the log phase 264.7 cells were plated at 8×10^4 cells per well in 0.2 mL growth medium per well in a 96-well tissue culture plate. After 6 to 8 hours post plating, 100 μL of growth medium from each well was removed and replaced with 100 μL fresh medium. A 1.0 mg/mL solution of LPS, which was used to induce the expression of COX-2 in the RAW 264.7 cells, was prepared by dissolving 1.0 mg of LPS in 1 mL DMSO.
On day two of the experiment, the test materials were prepared as 1000×stock in DMSO. For example, if the final concentration of the test material was to be 10 μg/mL, a 10 mg/mL stock was prepared by dissolving 10 mg of the test material in 1 mL of DMSO. Fresh test materials were prepared on day 2 of the experiment. In 1.7 mL microfuge tubes, 1 mL DMEM without FBS was added to obtain test concentrations of 0.05, 0.10,0.5, and 1.0 μg/mL. 2 μL of the 1000×DMSO stock of the test material was added to the 1 mL of medium without FBS. The tube contained the final concentration of the test material was concentrated 2-fold. The tube was placed in incubator for 10 minutes to equilibrate.
One-hundred mL of medium was removed from each well of the cell plates prepared on day one. […]

C[C@H]1[C@H](C)CC[C@]2(C(=O)O)CC[C@]3(C)C(=CC[C@@H]4[C@@]5(C)CC[C@H](O)C(C)(C)[C@@H]5CC[C@]43C)[C@H]12 [Ursolic acid, ursolic acid]
Inhibition of COX-2 protein expression (COX-2 [1]): does not inhibit | IC50 (COX-2 [2]): 35.3 µM

CC1(C)CC[C@]2(C(=O)O)CC[C@]3(C)C(=CC[C@@H]4[C@@]5(C)CC[C@H](O)C(C)(C)[C@@H]5CC[C@]43C)[C@@H]2C1 [Oleanolic acid, oleanolic acid]
Inhibition of COX-2 protein expression (COX-2 [1]): does not inhibit

C=C1CC[C@@H]2[C@](C)(CO)[C@H](O)CC[C@@]2(C)[C@@H]1C/C=C1/C(=O)OC[C@H]1O [Andrographolide, andrographolide]
Inhibition of COX-2 protein expression (COX-2 [1]): little effect | IC50 (COX-2 [2]): 34.8 µM

Source: patent US20020076452A1, “Combinations of sesquiterpene lactones and ditepene lactones or triterpenes for synergistic inhibition of cyclooxygenase-2” (Ashni Naturaceuticals, Inc., priority 2000, published 2002)
